Earlier results on one compound are cited in US12303506B2, “Trabectedin composition” (EXTROVIS AG, priority 2022, dated 2025).

For this series the following is noted: background statement.

As to `COc1cc2c(cc1O)CCN[C@]21CS[C@@H]2c3c(OC(C)=O)c(C)c4c(c3[C@H](COC1=O)N1[C@@H]2[C@H]2c3c(cc(C)c(OC)c3O)C[C@@H]([C@@H]1O)N2C)OCO4` [Trabectedin, (1′R,6R,6aR,7R,13S,14S,16R)-5(acetyloxy)-3′,4′,6,6a,7,13,14,16-octahydro-6′,8,14-trihydroxy-7′,9-dimethoxy-4,10,23 trimethylspiro[6,16-(epithiopropanoxymethano)-7,13-imino-12H-1,3dioxolo[7,8]isoquino[3,2b][3]benzazocine-20,1′(2′H)-isoquinolin]-19-one], the aqueous solubility entry is listed as “limited aqueous solubility”.
